Columns and labels:
[1] = tested on: adult healthy domestic cats; conditions: 0.3 and 3.0 g per kg of feed for two weeks
Source text: Within the context of a larger study, 24 adult healthy domestic cats of both genders, individually fed with a commercially available regular canned diet (‘Petley's Gourmet Supreme Beef Casserole’, PROMEAL (PTY) Ltd., containing 0.19% phosphorus corresponding to 1.13% phosphorus in the dry matter), were randomised to three equal groups of eight animals which were fed for two weeks with dose levels corresponding to 0, 0.3, and 3.0 grams of lanthanum carbonate octahydrate per kg of feed in their daily feed ration.
(§1) During the study the amount of food consumed was recorded daily and the animals were observed daily for the possible occurrence of adverse events. In the faeces collected over a three-day sampling period at the end of the study, the phosphorus levels were measured. On comparing the dietary intake of phosphorus with the excretion of phosphorus in the faeces, the apparent phosphorus digestibility was calculated according to the following equation: […]

[2] = tested on: adult healthy domestic cats
Source text: Fifteen adult healthy domestic cats of both genders were individually fed with commercially available regular canned diet (Premium Pate rich in lamb, IAMS Pet Food GmbH & Co containing 0.26% of phosphorus corresponding to 1.13% phosphorus in the dry matter). The aim of the study was to assess the palatability and safety of lanthanum carbonate octahydrate especially in high doses. Therefore 10 cats were fed lanthanum carbonate octahydrate in their daily feed ration at increasing doses. The study began with a dose level of about 12-15 g per kg of feed (dry matter). The dose was doubled every two weeks up to a dose level of about 96-120 g per kg of feed (dry matter). Five cats were given the feed without any lanthanum carbonate octahydrate and served as controls.
Palatability was assessed daily by observing the general acceptance of the feed. Tolerability and safety were assessed by measuring the blood serum phosphate levels and body weight at regular intervals as well as by daily observations concerning the health status and the possible occurrence of adverse events.

[3] = tested on: adult healthy female beagle dogs; conditions: dogs, 1.75, 5.0 and 17.5 g per kg of feed
Source text: A total of twelve adult healthy female beagle dogs were individually fed with a commercially available regular canned feed (‘Eukanuba Adult with much lamb’, IAMs Pet Food Ltd., containing 0.25% of phosphorus corresponding to 1.09% phosphorus in the dry matter). At weekly intervals, their diet was supplemented with increasing amounts of lanthanum carbonate octahydrate, thus resulting in final concentrations of the feed additive of 0, 1.75, 5.0, and 17.5 g of lanthanum carbonate octahydrate per kg of feed.
as §1, with “two-day” for “three-day”

[4] = up to a dose level of 1 g/kg of body weight (=about 108 mg per kg of dry feed)

O.O.O.O.O.O.O.O.O=C([O-])[O-].O=C([O-])[O-].O=C([O-])[O-].[La+3].[La+3] [lanthanum carbonate octahydrate]
tolerance in the study animals [1]: no negative effect
apparent phosphorus digestibility ([1]; FIG. 1.2): corresponding decrease
phosphorus content in the faeces ([1]; faeces collected over three days, FIG. 1.1): dose-dependently increased
tolerance of the study animals ([2]; even in extremely high doses): no negative effect
palatability or acceptance of the feed or its safety compared to the control cats ([2]; increasing doses vs control cats): no difference
adverse events [2, 4]: no limiting adverse events
body weight [2, 4]: no changes
serum phosphate levels [2, 4]: no changes
tolerance in the study animals [3]: no negative effect
apparent phosphorus digestibility ([3]; FIG. 2.2): corresponding decrease
phosphorus content in the faeces ([3]; increased weekly, faeces collected over two days, FIG. 2.1): dose-dependently increased

— patent US20080160163A1, “Reduction of Digestibility of Phosphorus” (BAYER HEALTHCARE AG, priority 2005, published 2008)
